The results in this text go back to patent publication US10457662B2, “Substituted amides for treating and preventing cancer” (The Regents of the University of Michigan, priority 2015, dated 2019).

Where two headings read alike, the source gives them in different places.

One assay concerns MiaPaCa-2. As to the kind of experiment: MTT assay, MiaPaCa-2. The following applies: Homo sapiens. How it is done:
Cells were treated with QN523 for 1, 4, 8, 24, 48, 72 h and left in culture in fresh media. MTT assay was performed 72 h after initiation of treatment. Data points represent Mean±SD from three independent experiments.
(§1) Experiments conducted during the course of developing embodiments for the present invention involved performance of a phenotypic screen of a library of 20,000 small-molecules representing five million compounds. […] Subsequently, a lead optimization campaign was performed to synthesize a series of close analogs. Initially, the 50 analogs were tested in three pancreatic cancer cell lines using MTT assay (Table 1).
(§2) For in vitro studies, compounds were dissolved in DMSO at 10 mM as stock solutions and stored at −20° C. For in vivo studies, QN523 was dissolved in a vehicle containing 5% DMSO, 35% propylene glycol and 60% saline, and administered at 100 uL through intraperitoneal injections.
Background: Tetrazolium assays rely on reduction of a dye to a coloured formazan, in cell work by metabolically active cells.

The next assay relates to Panc-1. Kind of assay: MTT assay, Panc-1. Particulars: Homo sapiens. The format is cell-based. As to the method: as §1, §2
The subject of a further assay is BxPC-3. As to the kind of experiment: MTT assay, BxPC-3. The class given is cell-based. The following applies: Homo sapiens. How it is done:
as §1, §2

Assay [1] relates to three pancreatic cancer cell lines. As to the kind of experiment: MTT assay, three pancreatic cancer cell lines. The class given is cell-based. Particulars: read-out: Mark: IC50 lower than 1 μM in at least one cell line, Table 1.
Another assay relates to GRP78, CHOP, ATF3, GDF15. Kind of assay: Western blotting of stress responsive proteins in MiaPaCa-2. The class given is cell-based. As to the method:
FIG. 11: QN523 induces protein expression of stress markers dose-dependently.
This example describes the validation of biomarkers GDF15, ATF3, DDIT3, HSPA5, WIPI1, GABARAPL1 and MAP1LC3B in pancreatic cancer cell lines. To validate the findings from bioinformatics analysis basing on Bru-seq experiments, the proposed biomarkers were further tested in pancreatic cancer cell lines. […] However, the potency of Sulindac is much lower than that of QN523, with IC50 of 300 μM in MiaPaCa-2.
(§3) In addition, primary antibodies for LC3B, survivin, cyclin D1, Stat3 and phosphorylated Stat3 (Y705) are from Cell Signaling Technology.
For orientation: In western blotting, separated proteins are transferred to a membrane and probed.

Assay [2] deals with WIPI1, GABARAPL1 and LC3B. As to the kind of experiment: Western blotting of autophagy related proteins in MiaPaCa-2. The following applies: for activation of autophagy: at their IC50 values. The format is cell-based. As to the method:
FIG. 12: QN523 induces protein expression of autophagy markers dose-dependently.
Significant induction of the protein was detected at concentrations as low as 0.25 μM.
as §3

The mark [3] stands for this setting: MIA PaCa-2, read-out: IC50 Values MiaPaCa-2.
The mark [4] stands for this setting: PANC-1, MTT assay, Mean ± SD, three independent experiments, read-out: IC50 Values Panc-1.
The mark [5] stands for this setting: BXPC-3, MTT assay, Mean ± SD, three independent experiments, read-out: IC50 Values BxPC-3.
Where [6] appears, read: MIA PaCa-2, read-out: IC50 Values MiaPaCa-2, MTT assay, Mean ± SD, three independent experiments.
Where [7] appears, read: PANC-1, read-out: IC50 Values Panc-1.
The mark [8] stands for this setting: BXPC-3, read-out: IC50 Values BxPC-3.

For the compound `O=C(Nc1cc(Cl)cc2cccnc12)c1ncccn1` [QN794, N-(6-Chloroquinolin-8-yl)pyrimidine-2-carboxamide], the IC50 in the assay with MiaPaCa-2 (setting [3]) was 0.8 ± 0.05 µM; in the assay on Panc-1 (setting [4]), 4.67 ± 1.53 µM; in the assay on BxPC-3 (setting [5]) it was above 10 µM; in assay [1], below 1 µM.
The like results for `O=C(Nc1cc(OCCF)cc2cccnc12)c1cnccn1` [QN144, Pyrazine-2-carboxylic acid [6-(2-fluoro-ethoxy)-quinolin-8-yl]amide] were, in that order, 0.37 ± 0.15 µM, 0.53 ± 0.21 µM, 4.33 ± 0.76 µM and below 1 µM.
In the same order, the values of `COc1cc(NC(=O)c2cnc(C)cn2)c2ncccc2c1` [QN663, 5-Methylpyrazine-2-carboxylic acid (6-methoxyquinolin-8-yl)amide] are 0.27 ± 0.15 µM, 0.83 ± 0.21 µM, 6.7 ± 0.6 µM and below 1 µM.
For `Cc1cnc(C(=O)Nc2cc(F)cc3cccnc23)cn1` [QN652, 5-Methylpyrazine-2-carboxylic acid (6-fluoroquinolin-8-yl)amide], the IC50 was 0.31 ± 0.16 µM in the assay with MiaPaCa-2 (setting [3]), 2.12 ± 0.94 µM in the assay on Panc-1 (setting [4]), above 10 µM in the assay with BxPC-3 (setting [5]) and below 1 µM in assay [1].
Take `O=C(Nc1cccc2cccnc12)c1ncccn1` [QN567, Pyrimidine-2-carboxylic acid quinolin-8-ylamide]: the IC50 in the assay on MiaPaCa-2 (setting [6]) was 0.33 ± 0.06 µM; in the assay on Panc-1 (setting [7]), above 10 µM; in the assay with BxPC-3 (setting [8]), above 10 µM; in assay [1], below 1 µM.
Consider `Cc1cnc(C(=O)Nc2cc(OCCNC(=O)OC(C)(C)C)cc3cccnc23)cn1` [QN152, (2-{8-[(5-Methylpyrazine-2-carbonyl)amino]quinolin-6-yloxy}ethyl)carbamic acid tert-butyl ester], for which the IC50 in the assay on MiaPaCa-2 (setting [3]) was 0.67 ± 0.12 µM; with Panc-1 (setting [4]), 2.17 ± 0.76 µM; with BxPC-3 (setting [5]), 3.67 ± 0.76 µM; in assay [1], below 1 µM.
For the compound `COc1cc(NC(=O)c2cnccn2)c2ncccc2c1` [QN107], the IC50 in the assay on MiaPaCa-2 (setting [3]) is 0.28 ± 0.04 µM; in the assay on Panc-1 (setting [4]), 0.77 ± 0.21 µM; in the assay on BxPC-3 (setting [5]) it was 5.53 ± 1.18 µM; in assay [1], below 1 µM.
The like results for `Cc1cnc(C(=O)Nc2cc(OCCN3CCOCC3)cc3cccnc23)cn1` [QN138, 5-Methyl-pyrazine-2-carboxylic acid [6-(2-morpholin-4-yl-ethoxy)-quinolin-8-yl]-amide] were, in that order, 0.73 ± 0.15 µM, 3.5 ± 0.5 µM, 2 ± 0.87 µM and below 1 µM.
For the compound `CN1CCN(CCCN2c3ccccc3Sc3ccc(Cl)cc32)CC1` [prochlorperazine], in the assay on GRP78, CHOP, ATF3, GDF15 (tested at IC50 value), the “induction of GRP78 and CHOP” value is “most robust induction of GRP78 and CHOP”. Further, the activation of autophagy result in assay [2] is recorded as “robust activation of autophagy”.
On to `O=C(Nc1cc(F)cc2cccnc12)c1cnccn1` [QN651, Pyrazine-2-carboxylic acid (6-fluoro-quinolin-8-yl)amide], for which the IC50 is 0.13 ± 0.06 µM in the assay on MiaPaCa-2 (setting [3]), 0.67 ± 0.25 µM in the assay with Panc-1 (setting [4]), above 10 µM in the assay with BxPC-3 (setting [5]) and below 1 µM in assay [1].
Take `CSc1ccc2c(c1)N(CCC1CCCCN1C)c1ccccc1S2` (stereo not drawn) [thioridazine]: the activation of autophagy result in assay [2] is on record as “robust activation of autophagy”.
For the compound `CC(C)(C)OC(=O)NCCOc1cc(NC(=O)c2cnccn2)c2ncccc2c1` [QN151, (2-{8-[(Pyrazine-2-carbonyl)amino]quinolin-6-yloxy}ethyl)carbamic acid tert-butyl ester], the IC50 was 0.87 ± 0.15 µM with MiaPaCa-2 (setting [3]), 9.5 ± 0.5 µM with Panc-1 (setting [4]), 9.17 ± 0.76 µM with BxPC-3 (setting [5]) and below 1 µM in assay [1].
In the case of `O=C(Nc1cc(F)cc2cccnc12)c1ncccn1` [QN658, Pyrimidine-2-carboxylic acid (6-fluoroquinolin-8-yl)amide], the 50% inhibitory concentration (IC50) with MiaPaCa-2 (setting [3]) was 0.3 ± 0.1 µM; in the assay on Panc-1 (setting [4]) it was 5.33 ± 1.53 µM; with BxPC-3 (setting [5]), above 10 µM; in assay [1], below 1 µM.
In the case of `CC1=C(CC(=O)O)c2cc(F)ccc2/C1=C\c1ccc([S+](C)[O-])cc1` (stereo not drawn) [Sulindac], in the assay on MiaPaCa-2 (MIA PaCa-2, read-out: IC50 in MiaPaCa-2), the IC50 stood at 300 µM. In addition, in the assay on GRP78, CHOP, ATF3, GDF15 (72 h, western blotting), the “protein levels of stress responsive markers HSPA5, DDIT3, ATF3 and GDF15” value was “induced”. For the same compound, the “autophagy-related markers WIPI1, GABARAPL1 and LC3B” value in assay [2] (72 h treatment, western blotting) was “Accumulation”.
For the compound `O=C(Nc1ccc(Br)c2cccnc12)c1cnccn1` [QN618, Pyrazine-2-carboxylic acid (5-bromoquinolin-8-yl)amide], the IC50 in the assay on MiaPaCa-2 (setting [3]) is 0.75 ± 0.09 µM; with Panc-1 (setting [4]), 7.02 ± 2.92 µM; in the assay with BxPC-3 (setting [5]), 7.51 ± 1.32 µM; in assay [1], below 1 µM.
On to `O=C(Nc1cccc2cccnc12)c1ccc(Br)cn1` [QN529, 5-Bromopyridine-2-carboxylic acid quinolin-8-ylamide], for which the IC50 was 1.83 ± 0.72 µM with MiaPaCa-2 (setting [6]), 4 ± 0.8 µM in the assay on Panc-1 (setting [7]) and above 10 µM in the assay on BxPC-3 (setting [8]).
`O=C(Nc1cccc2cccnc12)c1cccc(Br)n1` [QN530, 6-Bromopyridine-2-carboxylic acid quinolin-8-ylamide]: the IC50 in the assay on MiaPaCa-2 (setting [6]), in the assay with Panc-1 (setting [7]) and in the assay with BxPC-3 (setting [8]) was above 10 µM in each case.
Take `O=C(Nc1cc(Cl)cc2cccnc12)c1cnccn1` [QN792, N-(6-Chloroquinolin-8-yl)pyrazine-2-carboxamide]: the half-maximal inhibitory concentration (IC50) in the assay with MiaPaCa-2 (setting [3]) was 2.83 ± 0.76 µM; with Panc-1 (setting [4]) it was 2.7 ± 0.52 µM; in the assay on BxPC-3 (setting [5]), above 10 µM.

The term IC50 denotes the concentration at which inhibition is half-maximal.
